The results in this text go back to patent US20230278995A1, “1,3,4-OXADIAZOLE DERIVATIVE COMPOUNDS AS HISTONE DEACETYLASE 6 INHIBITOR, AND THE PHARMACEUTICAL COMPOSITION COMPRISING THE SAME” (CHONG KUN DANG PHARMACEUTICAL CORP., priority 2020, published 2023).

Test [1] concerns the target T1, human recombinant HDAC1 (Homo sapiens, UniProt Q13547).
T1 construct: purchased Enzo Life Sciences, Inc. BML-SE456
The test can be described thus: HDAC enzyme activity inhibition assay (HDAC Fluorimetric Drug Discovery Kit), HDAC1. The format is biochemical. To be noted: human recombinant HDAC1, Fluor de Lys-SIRT1 substrate, 30° C. 60 minutes. The procedure:
(§1) For the HDAC1 enzyme activity test, human recombinant HDAC1 (BML-SE456) was used as an enzyme source and Fluor de Lys©-SIRT1 (BNL-K1177) was used as a substrate. After dispensing 5-fold diluted compounds into a 96-well plate, 0.3 μg of enzyme and 10 μM substrate were added to each well of the plate and allowed to react at 30° C. for 60 minutes. Next, Fluor de Lys© Developer II (BML-K1176) was added and reacted for 30 minutes to complete the reaction, and then the fluorescence values (Ex 360, Em 460) were measured using a multi-plate reader (Flexstation 3, Molecular Device). The HDAC6 enzymes were tested using human recombinant HDAC6 (382180) from Calbiochem Inc., according to the same protocol as the HDAC1 enzyme activity test method. With respect to the final result values, respective IC50 values were calculated using GraphPad Prism 4.0 program (Table 2).

In test [2] the target is T2, human recombinant HDAC6 (Homo sapiens, UniProt Q9UBN7).
T2 construct: purchased Calbiochem Inc. 382180
T2 sequence (Q9UBN7 1-1215): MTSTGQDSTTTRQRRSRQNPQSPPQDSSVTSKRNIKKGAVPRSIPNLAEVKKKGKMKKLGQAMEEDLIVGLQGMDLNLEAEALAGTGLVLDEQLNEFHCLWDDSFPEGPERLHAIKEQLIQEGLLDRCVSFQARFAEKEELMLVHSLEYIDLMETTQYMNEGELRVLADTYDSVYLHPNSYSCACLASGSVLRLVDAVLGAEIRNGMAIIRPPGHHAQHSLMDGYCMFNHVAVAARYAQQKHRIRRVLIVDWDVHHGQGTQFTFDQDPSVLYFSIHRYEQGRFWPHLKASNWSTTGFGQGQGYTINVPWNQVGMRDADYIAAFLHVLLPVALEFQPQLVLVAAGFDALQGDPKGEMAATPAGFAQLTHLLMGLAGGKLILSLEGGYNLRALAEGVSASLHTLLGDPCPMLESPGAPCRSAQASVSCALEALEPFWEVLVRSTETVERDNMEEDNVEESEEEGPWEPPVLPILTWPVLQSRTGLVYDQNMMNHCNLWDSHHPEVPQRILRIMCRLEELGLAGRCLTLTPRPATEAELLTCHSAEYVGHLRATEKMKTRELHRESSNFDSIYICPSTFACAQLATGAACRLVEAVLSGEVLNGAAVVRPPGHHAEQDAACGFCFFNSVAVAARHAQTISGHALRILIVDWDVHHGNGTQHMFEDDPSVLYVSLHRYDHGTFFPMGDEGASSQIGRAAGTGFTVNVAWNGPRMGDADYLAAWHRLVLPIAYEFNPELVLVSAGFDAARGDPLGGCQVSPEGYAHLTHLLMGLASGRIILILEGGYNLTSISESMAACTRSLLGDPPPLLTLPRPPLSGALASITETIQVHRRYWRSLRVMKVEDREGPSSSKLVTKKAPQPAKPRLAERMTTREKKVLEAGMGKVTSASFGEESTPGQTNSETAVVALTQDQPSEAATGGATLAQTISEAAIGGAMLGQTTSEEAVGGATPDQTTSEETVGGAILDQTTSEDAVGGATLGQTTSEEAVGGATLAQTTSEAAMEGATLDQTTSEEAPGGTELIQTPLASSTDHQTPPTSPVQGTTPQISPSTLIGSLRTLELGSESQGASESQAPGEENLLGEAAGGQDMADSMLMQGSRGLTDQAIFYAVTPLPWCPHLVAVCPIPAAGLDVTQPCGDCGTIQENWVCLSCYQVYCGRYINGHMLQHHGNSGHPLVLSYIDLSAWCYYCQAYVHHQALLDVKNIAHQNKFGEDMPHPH
Nature of the test: HDAC enzyme activity inhibition assay (HDAC Fluorimetric Drug Discovery Kit), HDAC6. It is filed as biochemical. To be noted: for HDAC6 selectivity (fold): HDAC1 vs HDAC6; for IC50: human recombinant HDAC6, same protocol as HDAC1. On the procedure: as §1

T1 sequence (Q13547 whole entry): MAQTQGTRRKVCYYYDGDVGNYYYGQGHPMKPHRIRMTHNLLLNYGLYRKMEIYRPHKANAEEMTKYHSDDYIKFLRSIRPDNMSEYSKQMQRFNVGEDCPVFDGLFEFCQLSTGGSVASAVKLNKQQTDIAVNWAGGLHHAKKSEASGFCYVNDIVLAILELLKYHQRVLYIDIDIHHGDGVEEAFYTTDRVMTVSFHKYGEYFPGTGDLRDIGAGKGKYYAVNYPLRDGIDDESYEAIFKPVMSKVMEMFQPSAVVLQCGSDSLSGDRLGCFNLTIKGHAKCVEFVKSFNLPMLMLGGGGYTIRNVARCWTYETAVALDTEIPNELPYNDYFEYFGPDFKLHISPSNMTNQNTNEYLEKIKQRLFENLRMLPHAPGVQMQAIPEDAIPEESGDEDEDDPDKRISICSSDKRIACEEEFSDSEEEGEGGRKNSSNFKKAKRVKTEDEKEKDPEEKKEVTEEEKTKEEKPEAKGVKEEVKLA

The IC50 is the concentration that gives 50% inhibition. Consider `O=C(N(Cc1ccc(-c2nnc(C(F)F)o2)cc1F)c1ccccc1)C1(F)CCNCC1` [Compound 2865, N-(4-(5-(difluoromethyl)-1,3,4-oxadiazol-2-yl)-2-fluorobenzyl)-4-fluoro-N-phenylpiperidine-4-carboxamide 2,2,2-trifluoroacetate], for which the results for the IC50 in test [1] and in test [2] were greater than 30000 nM and 1000 nM, respectively. The “HDAC6 selectivity (fold)” value in test [2] was 30 fold.
Consider `CN1CCC(F)(C(=O)N(Cc2ccc(-c3nnc(C(F)F)o3)cc2F)c2ccccc2)CC1` [Compound 2866, N-(4-(5-(difluoromethyl)-1,3,4-oxadiazol-2-yl)-2-fluorobenzyl)-4-fluoro-1-methyl-N-phenylpiperidine-4-carboxamide], for which the IC50 in test [1] is greater than 20000 nM; in test [2], 134 nM. Moreover, the “HDAC6 selectivity (fold)” value in test [2] is listed as 149 fold.
In the same order, the values of `CCN1CCC(F)(C(=O)N(Cc2ccc(-c3nnc(C(F)F)o3)cc2F)c2ccccc2)CC1` [Compound 2867, N-(4-(5-(difluoromethyl)-1,3,4-oxadiazol-2-yl)-2-fluorobenzyl)-1-ethyl-4-fluoro-N-phenylpiperidine-4-carboxamide] are greater than 20000 nM, 204 nM and 97 fold.
Consider `O=C(N(Cc1ccc(-c2nnc(C(F)F)o2)cc1F)c1ccccc1)C1(F)CCN(C2CCC2)CC1` [Compound 2868, 1-cyclobutyl-N-(4-(5-(difluoromethyl)-1,3,4-oxadiazol-2-yl)-2-fluorobenzyl)-4-fluoro-N-phenylpiperidine-4-carboxamide], for which the IC50 in test [1] was greater than 20000 nM.
Regarding `O=C(N(Cc1ccc(-c2nnc(C(F)F)o2)cc1F)c1ccccc1)C1(F)CCN(C2COC2)CC1` [Compound 2869, N-(4-(5-(difluoromethyl)-1,3,4-oxadiazol-2-yl)-2-fluorobenzyl)-4-fluoro-1-(oxetan-3-yl)-N-phenylpiperidine-4-carboxamide], the IC50 in test [1] was greater than 50000 nM. Further, in test [2], the “HDAC6 selectivity (fold)” value is reported as 464 fold and the IC50 turned out to be 108 nM.
In the same order, the values of `CN1CCC(F)(C(=O)N(Cc2ccc(-c3nnc(C(F)F)o3)cn2)c2ccccc2)CC1` [Compound 2951, N-((5-(5-(difluoromethyl)-1,3,4-oxadiazol-2-yl)pyridin-2-yl)methyl)-4-fluoro-1-methyl-N-phenylpiperidine-4-carboxamide] are 42600 nM, 569 fold and 74.7 nM.
In the same order, the values of `CC(C)N1CCC(F)(C(=O)N(Cc2ccc(-c3nnc(C(F)F)o3)cn2)c2ccccc2)CC1` [Compound 2952, N-((5-(5-(difluoromethyl)-1,3,4-oxadiazol-2-yl)pyridin-2-yl)methyl)-4-fluoro-1-isopropyl-N-phenylpiperidine-4-carboxamide] are greater than 50000 nM, 504 fold and 99.1 nM.
Regarding `O=C(N(Cc1ccc(-c2nnc(C(F)F)o2)cn1)c1ccccc1)C1(F)CCN(C2CCC2)CC1` [Compound 2953, 1-cyclobutyl-N-((5-(5-(difluoromethyl)-1,3,4-oxadiazol-2-yl)pyridin-2-yl)methyl)-4-fluoro-N-phenylpiperidine-4-carboxamide], the IC50 in test [1] was found to be 44000 nM. For the same compound, in test [2], the “HDAC6 selectivity (fold)” value was 543 fold and the 50% inhibitory concentration (IC50) turned out to be 80.9 nM.
In the same order, the values of `CN1CCC(F)(C(=O)N(Cc2ccc(-c3nnc(C(F)F)o3)cn2)c2cccc(F)c2)CC1` [Compound 2969, N-((5-(5-(difluoromethyl)-1,3,4-oxadiazol-2-yl)pyridin-2-yl)methyl)-4-fluoro-N-(3-fluorophenyl)-1-methylpiperidine-4-carboxamide] are greater than 50000 nM, 1,298 fold and 38.5 nM.
In the same order, the values of `CC(C)N1CCC(F)(C(=O)N(Cc2ccc(-c3nnc(C(F)F)o3)cn2)c2cccc(F)c2)CC1` [Compound 2970, N-((5-(5-(difluoromethyl)-1,3,4-oxadiazol-2-yl)pyridin-2-yl)methyl)-4-fluoro-N-(3-fluorophenyl)-1-isopropylpiperidine-4-carboxamide] are greater than 50000 nM, 1,046 fold and 47.8 nM.
In the same order, the values of `O=C(N(Cc1ccc(-c2nnc(C(F)F)o2)cn1)c1cccc(F)c1)C1(F)CCN(C2CCC2)CC1` [Compound 2971, 1-cyclobutyl-N-((5-(5-(difluoromethyl)-1,3,4-oxadiazol-2-yl)pyridin-2-yl)methyl)-4-fluoro-N-(3-fluorophenyl)piperidine-4-carboxamide] are greater than 50000 nM, 740 fold and 67.5 nM.
Consider `O=C(N(Cc1ccc(-c2nnc(C(F)F)o2)cn1)c1cccc(F)c1)C1(F)CCN(C2COC2)CC1` [Compound 2972, N-((5-(5-(difluoromethyl)-1,3,4-oxadiazol-2-yl)pyridin-2-yl)methyl)-4-fluoro-N-(3-fluorophenyl)-1-(oxetan-3-yl)piperidine-4-carboxamide], for which the IC50 in test [1] was greater than 50000 nM. In addition, in test [2], the “HDAC6 selectivity (fold)” value is 1,190 fold and the IC50 was 42 nM.
In the same order, the values of `CN1CC(F)(C(=O)N(Cc2ccc(-c3nnc(C(F)F)o3)cn2)c2ccccc2)C1` [Compound 2973, N-((5-(5-(difluoromethyl)-1,3,4-oxadiazol-2-yl)pyridin-2-yl)methyl)-3-fluoro-1-methyl-N-phenylazetidine-3-carboxamide] are greater than 50000 nM, 1,075 fold and 46.5 nM.
`CC(C)N1CC(F)(C(=O)N(Cc2ccc(-c3nnc(C(F)F)o3)cn2)c2ccccc2)C1` [Compound 2974, N-((5-(5-(difluoromethyl)-1,3,4-oxadiazol-2-yl)pyridin-2-yl)methyl)-3-fluoro-1-isopropyl-N-phenylazetidine-3-carboxamide]: in test [1], the IC50 is greater than 50000 nM. For the same compound, in test [2], the “HDAC6 selectivity (fold)” value is given as 1,054 fold and the IC50 was 47.4 nM.
In the same order, the values of `O=C(N(Cc1ccc(-c2nnc(C(F)F)o2)cn1)c1ccccc1)C1(F)CN(C2CCC2)C1` [Compound 2975, 1-cyclobutyl-N-((5-(5-(difluoromethyl)-1,3,4-oxadiazol-2-yl)pyridin-2-yl)methyl)-3-fluoro-N-phenylazetidine-3-carboxamide] are greater than 50000 nM, 1,022 fold and 48.9 nM.
As to `O=C(N(Cc1ccc(-c2nnc(C(F)F)o2)cn1)c1cccc(F)c1)C1(F)CN(C2CCCC2)C1` [Compound 3051, 1-cyclopentyl-N-((5-(5-(difluoromethyl)-1,3,4-oxadiazol-2-yl)pyridin-2-yl)methyl)-3-fluoro-N-(3-fluorophenyl)azetidine-3-carboxamide], the IC50 in test [1] was greater than 50000 nM.
Still for that read-out and setting: the result for `COCCC(=O)N1CC(F)(C(=O)N(Cc2ccc(-c3nnc(C(F)F)o3)cn2)c2cccc(F)c2)C1` [Compound 3167, N-((5-(5-(difluoromethyl)-1,3,4-oxadiazol-2-yl)pyridin-2-yl)methyl)-3-fluoro-N-(3-fluorophenyl)-1-(3-methoxypropanoyl)azetidine-3-carboxamide] reads greater than 50000 nM.
Still for that read-out and setting: the result for `O=C(N1CCC(F)(C(=O)N(Cc2ccc(-c3nnc(C(F)F)o3)cc2F)c2ccccc2)CC1)C(F)(F)F` [Compound 3441, N-(4-(5-(difluoromethyl)-1,3,4-oxadiazol-2-yl)-2-fluorobenzyl)-4-fluoro-N-phenyl-1-(2,2,2-trifluoroacetyl)piperidine-4-carboxamide] reads greater than 50000 nM.
